Experimental findings from US12576099B2, “Ribose-modified cap analog and use thereof” (Beijing Youcare Kechuang Pharmaceutical Technology Co., Ltd., priority 2024, dated 2026) are described below.

Data set [1] concerns HEK293T cells. Description: Translation efficiency of different capped luciferase mRNAs. It is filed as cell-based. Particulars: for Multiple of m6A (relative fluorescence intensity): relative to m6A; for Relative fluorescence intensity: HEK293T, 0.5 μg mRNA per well, 24 hours, proportional to translation efficiency. As for the experimental part: • (1) HEK293T cells were cultured in DMEM medium containing 10% FBS and penicillin/streptomycin at 37° C. with 5% CO2. • (2)Cells in the culture dish were digested and counted, then spread in a 96-well plate at 10,000 cells per well, and cultured overnight until the cells adhered to the wall. • (3) When the cell density reached approximately 80%, transfection was performed by adding 0.5 μg of mRNA sample and Lipofectamine MessengerMAX Transfection Reagent (Invitrogen) per well according to the manufacturer's instructions. • (4) After the transfected cells were cultured at 37° C. with 5% CO2 for 24 hours, the growth medium was removed from the cells to be tested, and the cells were rinsed with PBS. After centrifugation to remove PBS, 50 μL of 1× lysis buffer was added. The cells and all liquid were transferred to a microcentrifuge tube and centrifuged. • (5) 20 μL of sample was taken and added to 100 μL of Dual-Lumi™ II Luciferase Assay Reagent pre-equilibrated to room temperature, and mixed appropriately. • (6) The mixture was incubated at room temperature (approximately 25° C.) for 5 minutes to stabilize the luminescence signal. Chemiluminescence was detected using a multifunctional microplate reader with a function for detecting chemiluminescence, and the data were recorded.
The relative fluorescence intensity is proportional to the translation efficiency of mRNA.

Data set [2] concerns the target T1, T7 RNA polymerase (Escherichia phage T7, UniProt P00573). Description: In vitro transcription yield of mRNA using cap analogs. The class given is biochemical. The note with it: for Yield per unit template: in vitro transcription, 1 μg DNA template, 37° C., 2 hours. As for the experimental part: • (1) Capping synthesis using cap analogs
The plasmid was first linearized with plasmid linearizing enzyme, and then the linearized plasmid was purified. • (2) In vitro transcription and synthesis of mRNA
(§1) During the experiment, the volume of materials required for the system was first calculated, and then sample addition was conducted. The system was first added with sterile enzyme-free water, followed by the sequential addition of 10× buffer, NTPs, and cap analogs, mixed well, and gently centrifuged. Nuclease inhibitors, inorganic pyrophosphatase, T7RNA polymerase, and linearized DNA templates were then added thereto. The system was mixed well, gently centrifuged, and incubated at 37° C. After 2 hours of incubation, the system was added with 1 U of DNase I and incubated at 37° C. for another 30 minutes. The mRNA precipitate was then washed with 75% ethanol, and after the ethanol was briefly evaporated to dryness, the mRNA was redissolved in sterile enzyme-free water. • (3) The transcription product was purified, and the in vitro transcription yield of mRNA was recorded. • (4) The obtained mRNA was subjected to an annealing reaction with a probe.

Data set [3] can be described thus: Characterization of lipid nanoparticles encapsulating Fluc-mRNA prepared from different cap structures. It is filed as physicochemical. The note with it: for Particle size: LNP (YK-009/DSPC/cholesterol/DMG-PEG2000) with Fluc-mRNA transcribed using the named cap analog; for PDI: LNP with Fluc-mRNA transcribed using the named cap analog; for EE: encapsulation efficiency of LNP with Fluc-mRNA transcribed using the named cap analog. As for the experimental part:
Cationic lipid YK-009 (Beijing Youcare Kechuang Pharmaceutical Technology Co., Ltd.), DSPC (AVT (Shanghai) Pharmaceutical Technology Co., Ltd.), cholesterol (AVT (Shanghai) Pharmaceutical Technology Co., Ltd.), and DMG-PEG2000 were dissolved in ethanol at a molar ratio of 49:10:39.5:1.5, and the mRNA was diluted in 50 mM citrate buffer (pH=4). The ethanol lipid solution was mixed with the Fluc-mRNA aqueous solution prepared from different cap structures at a volume ratio of 1:3 using a microfluidic device at a flow rate of 10 mL/min to prepare LNPs at a weight ratio of total lipid to mRNA of approximately 15:1.
The resulting liposomes were diluted to 10-fold volume with PBS, and then ultrafiltered with a 300 KDa ultrafiltration tube to remove ethanol. The volume was then fixed to a certain volume with PBS. Finally, the LNPs were filtered through a 0.2 μm sterile filter to obtain an LNP preparation encapsulating Fluc-mRNA using YK-009/DSPC/cholesterol/DMG-PEG2000 (at a molar ratio of 49:10:39.5:1.5).
The particle size and polydispersity index (PDI) were determined by dynamic light scattering using a Malvern laser particle size analyzer. 10 μL of the liposome solution was taken, diluted to 1 mL with RNase-free deionized water, and added to a sample pool. Each sample was measured in triplicate. The measurement conditions were: a scattering angle of 90° and a temperature of 25° C. The encapsulation efficiency of LNPs was determined using the Quant-iT RiboGreen RNA Quantification Kit (Thermo Fisher Scientific, UK) according to the manufacturer's instructions.

Data set [4] concerns the target T2, DCP2 enzyme (Schizosaccharomyces pombe, UniProt O13828).
T2 construct: purchased New England Biolabs
T2 sequence (O13828 1-243 limits assumed): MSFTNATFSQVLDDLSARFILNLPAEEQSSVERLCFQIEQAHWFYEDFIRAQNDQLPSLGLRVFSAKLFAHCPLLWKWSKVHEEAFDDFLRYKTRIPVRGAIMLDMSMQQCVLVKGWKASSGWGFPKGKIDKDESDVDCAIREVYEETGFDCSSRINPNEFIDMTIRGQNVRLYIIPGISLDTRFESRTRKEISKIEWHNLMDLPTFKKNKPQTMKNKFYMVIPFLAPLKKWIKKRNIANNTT
T2 sequence (Q9P805 1-127 partner): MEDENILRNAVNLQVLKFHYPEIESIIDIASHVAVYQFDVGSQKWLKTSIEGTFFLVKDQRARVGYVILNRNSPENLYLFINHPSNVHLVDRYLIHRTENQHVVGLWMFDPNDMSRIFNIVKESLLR
T2 sequence (Q10108 155-180 partner limits assumed): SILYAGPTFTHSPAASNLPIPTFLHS
Description: Decapping enzyme stability test. Particulars: for Decapping rate (%) of DCP2 enzyme: 50 U mRNA decapping enzyme, 37° C., 45 minutes. It is filed as biochemical. As for the experimental part:
[…] of RNA purified by polyacrylamide gel electrophoresis (PAGE) was subjected to an enzymatic reaction with 50 U of mRNA decapping enzyme (New England Biolabs) and 1×MDE buffer at 37° C. for 45 minutes. The enzymatic reactants were subjected to PAGE and stained with SYBR Green II (Lonza), followed by observation of the post-electrophoresis gel image on a Typhoon FLA 7000 (GE Healthcare) instrument. The electrophoresis band intensity ratio of RNA capping to RNA decapping was counted using ImageQuant (GE Healthcare) software, and the decapping rate of the decapping enzyme was calculated.

For data set [5], the target named is T1, T7 RNA polymerase. Description: Capping rate of mRNA transcription initiated by cap analogs (LC-MS). The class given is biochemical. The note with it: for Capping rate: LC-MS of mRNA 5′ fragment. As for the experimental part: as §1
The annealing reaction was performed in a PCR instrument: 95° C. for 5 minutes; 65° C. for 2 minutes; 55° C. for 2 minutes; 40° C. for 2 minutes; 22° C. for 2 minutes. • (5) Magnetic bead pretreatment and probe binding: 100 μL of magnetic beads was placed on a magnetic frame for pretreatment. The magnetic bead solution was added with 120 μL of sample and incubated at room temperature for 30 minutes with slow mixing. • (6) mRNA splicing and obtaining the mRNA 5′ single-strand sequence bound to the probe
The mixture was added with 20 μL of RNase H (5 U/μL) and incubated at 37° C. for 3 hours with mixing every half hour. After incubation, the magnetic beads were washed and then added with 100 μL of 75% methanol heated to 80° C. The mixture was heated to 80° C. on a heating plate, held for 3 minutes, then placed on a magnetic frame to aspirate the supernatant, and dried at room temperature for 45 minutes to a volume of 10 μL using a centrifugal evaporator. The sample was then resuspended in 50 μL of 100 μM EDTA/1% MeOH and ready for LC-MS analysis to determine the capping of RNA in the transcription reaction. Since there is a significant difference in molecular weight between capped and uncapped bases, the capping rate of mRNA transcription initiated by different cap analogs can be determined based on the difference in molecular mass.

T1 sequence (P00573 whole entry): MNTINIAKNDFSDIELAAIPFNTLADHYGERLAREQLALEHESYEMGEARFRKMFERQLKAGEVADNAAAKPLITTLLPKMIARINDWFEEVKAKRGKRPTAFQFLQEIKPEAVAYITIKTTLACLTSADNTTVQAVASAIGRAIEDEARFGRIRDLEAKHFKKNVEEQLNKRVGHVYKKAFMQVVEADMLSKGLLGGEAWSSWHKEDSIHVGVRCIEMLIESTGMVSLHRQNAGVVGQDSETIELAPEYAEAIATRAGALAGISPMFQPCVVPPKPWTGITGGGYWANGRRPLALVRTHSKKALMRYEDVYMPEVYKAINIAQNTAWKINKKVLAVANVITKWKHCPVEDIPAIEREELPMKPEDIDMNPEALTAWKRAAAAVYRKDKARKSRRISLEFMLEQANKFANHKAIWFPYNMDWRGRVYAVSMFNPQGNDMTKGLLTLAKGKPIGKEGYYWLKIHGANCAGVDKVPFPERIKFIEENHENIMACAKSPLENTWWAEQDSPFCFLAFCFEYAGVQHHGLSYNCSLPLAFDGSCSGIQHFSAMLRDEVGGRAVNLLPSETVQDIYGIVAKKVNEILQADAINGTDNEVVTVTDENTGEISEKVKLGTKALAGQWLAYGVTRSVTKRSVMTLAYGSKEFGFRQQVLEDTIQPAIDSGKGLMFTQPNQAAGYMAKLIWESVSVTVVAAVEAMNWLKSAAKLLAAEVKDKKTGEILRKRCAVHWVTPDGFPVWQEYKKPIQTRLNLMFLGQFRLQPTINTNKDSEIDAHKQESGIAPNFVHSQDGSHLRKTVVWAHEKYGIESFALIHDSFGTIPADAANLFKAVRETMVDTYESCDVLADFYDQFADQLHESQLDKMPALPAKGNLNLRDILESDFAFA

Consider `COC1[C@H](n2cnc3c(N)ncnc32)O[C@H](COP(=O)(O)OP(=O)(O)OP(=O)(O)OC[C@@]23COC([C@H]([n+]4cn(C)c5c(=O)[nH]c(N)nc54)O2)[C@H]3O)[C@H]1OP(=O)(O)OCC1OC(n2cnc3c(=O)[nH]c(N)nc32)C(O)C1O` (stereo partly shown) [Compound 14, reference compound], for which the “Multiple of m6A (relative fluorescence intensity)” value in data set [1] is reported as 2.9. Moreover, in data set [2], the “Yield per unit template” value was 123.2 µg and the “Increase relative to 5227 (in vitro transcription yield)” value is −8.2%. In data set [3], this molecule showed a Particle size of 79.35 nm, a PDI of 0.073 and an EE of 94.2%. Besides, in data set [4], the “Decapping rate (%) of DCP2 enzyme” value is 26.8% and the “Decrease relative to N-7113 (decapping rate)” value stood at 17.0%. In data set [5], the Capping rate was found to be 78.3% and the “Increase relative to 5227 (capping rate)” value was determined as 8.9%.
As for `CO[C@@H]1[C@H](OP(=O)(O)OC[C@H]2O[C@@H](n3cnc4c(=O)[nH]c(N)nc43)[C@H](O)[C@@H]2O)[C@@H](COP(=O)(O)OP(=O)(O)OP(=O)(O)OC[C@H]2O[C@@H](C[n+]3cn(C)c4c(=O)[nH]c(N)nc43)[C@H](O)[C@@H]2O)O[C@H]1n1cnc2c(N)ncnc21` [YK-CAP-103], in data set [1], the Relative fluorescence intensity is 0.77 and the “Multiple of m6A (relative fluorescence intensity)” value came to 2.0. In data set [2], the “Yield per unit template” value was 88.0 µg and the “Increase relative to 5227 (in vitro transcription yield)” value is listed as −34.4%. In data set [3], this molecule registered a Particle size of 67.24 nm, a PDI of 0.053 and an EE of 94.7%. Moreover, in data set [4], the “Decapping rate (%) of DCP2 enzyme” value was found to be 36.5% and the “Decrease relative to N-7113 (decapping rate)” value came out at 7.3%. For the same molecule, in data set [5], the Capping rate came to 71.1% and the “Increase relative to 5227 (capping rate)” value is reported as −1.1%.
Regarding `CO[C@@H]1[C@H](OP(=O)(O)OC[C@H]2O[C@@H](n3cnc4c(=O)[nH]c(N)nc43)[C@H](O)[C@@H]2O)[C@@H](COP(=O)(O)OP(=O)(O)OP(=O)(O)OC[C@H]2O[C@@H]([n+]3cn(C)c4c(=O)[nH]c(N)nc43)[C@H](O)[C@]2(C)C#N)O[C@H]1n1cnc2c(N)ncnc21` [YK-CAP-105], in data set [1], the Relative fluorescence intensity turned out to be 0.72 and the “Multiple of m6A (relative fluorescence intensity)” value stood at 1.9. In data set [2], the “Yield per unit template” value came to 82.3 µg and the “Increase relative to 5227 (in vitro transcription yield)” value is reported as −38.7%. In data set [3], the Particle size is on record as 77.22 nm, the PDI is given as 0.063 and the EE was determined as 95.7%. Besides, in data set [4], the “Decapping rate (%) of DCP2 enzyme” value is listed as 33.9% and the “Decrease relative to N-7113 (decapping rate)” value is on record as 9.9%. In data set [5], the Capping rate is on record as 69.3% and the “Increase relative to 5227 (capping rate)” value is −3.6%.
For `CO[C@@H]1[C@H](OP(=O)(O)OC[C@H]2O[C@@H](n3cnc4c(=O)[nH]c(N)nc43)[C@H](O)[C@@H]2O)[C@@H](COP(=O)(O)OP(=O)(O)OP(=O)(O)OC[C@H]2OC([n+]3cn(C)c4c(=O)[nH]c(N)nc43)[C@H](NC(C)=O)[C@@H](O)[C@@H]2O)O[C@H]1n1cnc2c(N)ncnc21` (stereo partly shown) [YK-CAP-102], in data set [1], the Relative fluorescence intensity turned out to be 0.34 and the “Multiple of m6A (relative fluorescence intensity)” value came out at 0.9. In data set [2], the “Yield per unit template” value turned out to be 44.1 µg and the “Increase relative to 5227 (in vitro transcription yield)” value is −67.1%. In data set [3], this molecule registered a Particle size of 73.22 nm, a PDI of 0.055 and an EE of 95.3%. Moreover, in data set [4], the “Decapping rate (%) of DCP2 enzyme” value is 41.2% and the “Decrease relative to N-7113 (decapping rate)” value stood at 2.6%. Moreover, in data set [5], the Capping rate was 30.2% and the “Increase relative to 5227 (capping rate)” value was −58.0%.
